Test results published in ChEMBL document CHEMBL1201862, “PubChem BioAssay data set” (2004).
Active and inactive are the calls of the source.

Key:
[1] = biological target: Glucose-6-phosphate 1-dehydrogenase (Homo sapiens, UniProt P11413); test: inhibition of Homo sapiens G6PD, dose series – biochemical, fluorescence, selectivity assay for P. falciparum G6PD inhibitor project, dose response (AID 504792); assay type: functional
[2] = biological target: 5-hydroxytryptamine receptor 2A (Mus musculus, UniProt P35363); assay type: functional, cell-based;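 further: CHO-K1 cells with tagged receptor and beta-arrestin; agonist potency measured as compound-induced activation of the receptor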
[3] = biological target: Mu-type opioid receptor (Homo sapiens, UniProt P35372); assay type: functional, cell-based;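 further: U2OS cells with beta-arrestin recruitment to OPRM1 by beta-gal complementation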
[4] = Counterscreen for activators of the function of SWI/SNF related, matrix associated, actin dependent regulator of chromatin, subfamily a, member 2 (SMARCA2, BRM): Luminescence-based cell-based high throughput dose response assay to identify non-selective compounds using the VP16 reporter assay.; assay type: functional
[5] = biological target: SWI/SNF-related matrix-associated actin-dependent regulator of chromatin subfamily A member 2 (Homo sapiens, UniProt P51531); test: Luminescence-based cell-based high throughput dose response assay to identify activators of the function of SWI/SNF related, matrix associated, actin dependent regulator of chromatin, subfamily a, member 2 (SMARCA2, BRM).; assay type: functional
[6] = biological target: Photoreceptor-specific nuclear receptor (Homo sapiens, UniProt Q9Y5X4); test: ligands suppressing NR2E3 nuclear receptor activity – biochemical, TR-FRET, dose response (AID 463256); assay type: functional
[7] = biological target: Peroxisome proliferator-activated receptor gamma/Nuclear receptor corepressor 2 (Homo sapiens, UniProt P37231+Q9Y618); test: Counterscreen for NR2E3 inverse agonists: TR-FRET-based biochemical high throughput dose response assay to identify inverse agonists of the interaction between peroxisome proliferator-activated receptor gamma (PPARg) and nuclear receptor co-repressor 2 (NCOR2).; assay type: functional
[8] = biological target: Voltage-dependent T-type calcium channel subunit alpha-1H (Homo sapiens, UniProt O95180); assay type: functional;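 further: channel activity triggered by adding a high calcium stimulation buffer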
[9] = biological target: Induced myeloid leukemia cell differentiation protein Mcl-1 (Homo sapiens, UniProt Q07820); assay type: functional
[10] = biological target: Cytochrome P450 2C19 (Homo sapiens, UniProt P33261); test: Cytochrome panel assay with activity outcomes. Panel member name: p450-cyp2c19 Compounds with AC50 equal or less than 10 uM are considered active; assay type: functional; conditions: read-out: AC50
[11] = biological target: Cytochrome P450 2C9 (Homo sapiens, UniProt P11712)
[12] = biological target: Cytochrome P450 2D6 (Homo sapiens, UniProt P10635);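 further: CYP2D6 member of a cytochrome P450 panel assay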
[13] = biological target: T1, Corticotropin-releasing factor receptor 2/Corticotropin-releasing factor-binding protein (Homo sapiens, UniProt P24387+Q13324); test: Dose Response confirmation of uHTS hits for small molecule antagonists of the CRF-binding protein and CRF-R2 receptor complex.; assay type: functional; conditions: read-out: IC50_Mean
T1 sequence (Q13324 whole entry): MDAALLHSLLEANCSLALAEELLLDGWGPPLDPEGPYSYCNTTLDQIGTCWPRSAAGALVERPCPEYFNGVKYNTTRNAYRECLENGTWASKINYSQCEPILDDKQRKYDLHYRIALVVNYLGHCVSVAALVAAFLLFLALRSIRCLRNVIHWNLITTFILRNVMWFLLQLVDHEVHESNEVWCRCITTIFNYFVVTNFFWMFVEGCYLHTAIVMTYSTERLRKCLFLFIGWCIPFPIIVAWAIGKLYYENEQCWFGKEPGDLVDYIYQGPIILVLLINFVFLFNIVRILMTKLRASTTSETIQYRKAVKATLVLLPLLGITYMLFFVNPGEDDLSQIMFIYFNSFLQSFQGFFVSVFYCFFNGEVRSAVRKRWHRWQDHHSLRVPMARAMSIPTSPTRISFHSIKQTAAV
T1 sequence (P24387 whole entry): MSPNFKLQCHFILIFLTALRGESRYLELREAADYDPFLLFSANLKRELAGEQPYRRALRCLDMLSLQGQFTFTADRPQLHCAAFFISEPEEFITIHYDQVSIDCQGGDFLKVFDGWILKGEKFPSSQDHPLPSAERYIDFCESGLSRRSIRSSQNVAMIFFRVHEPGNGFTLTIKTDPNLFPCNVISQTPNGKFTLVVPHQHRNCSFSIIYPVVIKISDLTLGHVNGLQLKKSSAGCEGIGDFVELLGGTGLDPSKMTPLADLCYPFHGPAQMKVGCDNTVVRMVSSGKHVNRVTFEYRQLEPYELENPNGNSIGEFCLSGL

[14] = biological target: T1, Corticotropin-releasing factor receptor 2/Corticotropin-releasing factor-binding protein; test: activators of CRF receptor 2 with binding protein – uHTS hits, confirmation (AID 602473); assay type: functional; conditions: read-out: EC50_Mean
[15] = biological target: T2, Replicative DNA helicase DnaB (Mycobacterium tuberculosis, UniProt P9WMR3); test: DnaB intein splicing inhibitors, dose response, biochemical, cell-free fluorescence (AID 449749); assay type: functional
T2 sequence (P9WMR3 whole entry): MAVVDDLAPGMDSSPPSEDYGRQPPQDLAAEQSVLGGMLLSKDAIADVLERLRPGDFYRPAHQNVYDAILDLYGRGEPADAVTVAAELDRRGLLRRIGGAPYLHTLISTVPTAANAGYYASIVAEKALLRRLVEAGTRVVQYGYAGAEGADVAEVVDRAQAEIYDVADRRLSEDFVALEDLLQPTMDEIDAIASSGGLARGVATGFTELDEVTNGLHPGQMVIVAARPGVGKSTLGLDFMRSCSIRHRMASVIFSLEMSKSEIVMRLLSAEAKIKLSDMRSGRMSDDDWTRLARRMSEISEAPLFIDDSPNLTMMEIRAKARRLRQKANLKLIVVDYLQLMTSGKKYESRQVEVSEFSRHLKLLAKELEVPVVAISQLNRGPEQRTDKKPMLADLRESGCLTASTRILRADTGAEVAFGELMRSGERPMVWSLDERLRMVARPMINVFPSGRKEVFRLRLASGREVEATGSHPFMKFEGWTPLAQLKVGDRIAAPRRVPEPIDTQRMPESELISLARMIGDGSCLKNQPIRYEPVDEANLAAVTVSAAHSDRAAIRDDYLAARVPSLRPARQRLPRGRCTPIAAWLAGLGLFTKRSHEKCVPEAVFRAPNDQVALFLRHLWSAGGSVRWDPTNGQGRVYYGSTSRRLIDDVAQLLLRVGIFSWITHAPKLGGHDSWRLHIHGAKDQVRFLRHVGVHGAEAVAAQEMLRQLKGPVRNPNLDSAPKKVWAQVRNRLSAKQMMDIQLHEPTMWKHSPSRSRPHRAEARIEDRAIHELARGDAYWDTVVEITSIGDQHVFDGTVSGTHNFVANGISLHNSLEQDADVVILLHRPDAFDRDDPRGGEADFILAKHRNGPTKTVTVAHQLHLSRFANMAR

[16] = biological target: T3, Protein RecA (Mycobacterium tuberculosis, UniProt P9WHJ3); test: Fluorescence Cell-Free Homogeneous Dose Retest to Identify Inhibitors of RecA-Intein Splicing Activity. [Related pubchem assays (depositor defined):AID2097, AID2223, AID489010, AID492950]; assay type: functional
T3 sequence (P9WHJ3 whole entry): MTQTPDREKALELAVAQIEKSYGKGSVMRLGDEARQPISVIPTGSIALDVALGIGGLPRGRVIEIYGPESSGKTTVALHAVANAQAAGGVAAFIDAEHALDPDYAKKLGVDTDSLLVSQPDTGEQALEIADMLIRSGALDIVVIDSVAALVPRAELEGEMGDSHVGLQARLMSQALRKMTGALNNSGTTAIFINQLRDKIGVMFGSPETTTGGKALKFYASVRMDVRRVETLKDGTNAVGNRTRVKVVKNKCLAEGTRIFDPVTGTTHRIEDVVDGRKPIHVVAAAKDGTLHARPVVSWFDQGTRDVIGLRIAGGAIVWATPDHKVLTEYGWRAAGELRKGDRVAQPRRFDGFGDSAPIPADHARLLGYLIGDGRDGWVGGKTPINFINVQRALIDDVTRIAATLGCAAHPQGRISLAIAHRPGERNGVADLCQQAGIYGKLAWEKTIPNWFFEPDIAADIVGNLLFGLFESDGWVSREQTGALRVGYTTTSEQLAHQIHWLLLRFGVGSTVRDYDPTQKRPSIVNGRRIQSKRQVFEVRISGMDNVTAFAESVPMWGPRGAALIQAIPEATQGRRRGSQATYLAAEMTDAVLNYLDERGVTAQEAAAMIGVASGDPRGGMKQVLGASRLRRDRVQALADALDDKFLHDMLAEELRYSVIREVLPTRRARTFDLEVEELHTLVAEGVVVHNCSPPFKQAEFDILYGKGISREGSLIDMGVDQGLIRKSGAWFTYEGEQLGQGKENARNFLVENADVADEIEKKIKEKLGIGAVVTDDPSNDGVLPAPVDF

Sequence of SWI/SNF-related matrix-associated actin-dependent regulator of chromatin subfamily A member 2 (P51531 whole entry): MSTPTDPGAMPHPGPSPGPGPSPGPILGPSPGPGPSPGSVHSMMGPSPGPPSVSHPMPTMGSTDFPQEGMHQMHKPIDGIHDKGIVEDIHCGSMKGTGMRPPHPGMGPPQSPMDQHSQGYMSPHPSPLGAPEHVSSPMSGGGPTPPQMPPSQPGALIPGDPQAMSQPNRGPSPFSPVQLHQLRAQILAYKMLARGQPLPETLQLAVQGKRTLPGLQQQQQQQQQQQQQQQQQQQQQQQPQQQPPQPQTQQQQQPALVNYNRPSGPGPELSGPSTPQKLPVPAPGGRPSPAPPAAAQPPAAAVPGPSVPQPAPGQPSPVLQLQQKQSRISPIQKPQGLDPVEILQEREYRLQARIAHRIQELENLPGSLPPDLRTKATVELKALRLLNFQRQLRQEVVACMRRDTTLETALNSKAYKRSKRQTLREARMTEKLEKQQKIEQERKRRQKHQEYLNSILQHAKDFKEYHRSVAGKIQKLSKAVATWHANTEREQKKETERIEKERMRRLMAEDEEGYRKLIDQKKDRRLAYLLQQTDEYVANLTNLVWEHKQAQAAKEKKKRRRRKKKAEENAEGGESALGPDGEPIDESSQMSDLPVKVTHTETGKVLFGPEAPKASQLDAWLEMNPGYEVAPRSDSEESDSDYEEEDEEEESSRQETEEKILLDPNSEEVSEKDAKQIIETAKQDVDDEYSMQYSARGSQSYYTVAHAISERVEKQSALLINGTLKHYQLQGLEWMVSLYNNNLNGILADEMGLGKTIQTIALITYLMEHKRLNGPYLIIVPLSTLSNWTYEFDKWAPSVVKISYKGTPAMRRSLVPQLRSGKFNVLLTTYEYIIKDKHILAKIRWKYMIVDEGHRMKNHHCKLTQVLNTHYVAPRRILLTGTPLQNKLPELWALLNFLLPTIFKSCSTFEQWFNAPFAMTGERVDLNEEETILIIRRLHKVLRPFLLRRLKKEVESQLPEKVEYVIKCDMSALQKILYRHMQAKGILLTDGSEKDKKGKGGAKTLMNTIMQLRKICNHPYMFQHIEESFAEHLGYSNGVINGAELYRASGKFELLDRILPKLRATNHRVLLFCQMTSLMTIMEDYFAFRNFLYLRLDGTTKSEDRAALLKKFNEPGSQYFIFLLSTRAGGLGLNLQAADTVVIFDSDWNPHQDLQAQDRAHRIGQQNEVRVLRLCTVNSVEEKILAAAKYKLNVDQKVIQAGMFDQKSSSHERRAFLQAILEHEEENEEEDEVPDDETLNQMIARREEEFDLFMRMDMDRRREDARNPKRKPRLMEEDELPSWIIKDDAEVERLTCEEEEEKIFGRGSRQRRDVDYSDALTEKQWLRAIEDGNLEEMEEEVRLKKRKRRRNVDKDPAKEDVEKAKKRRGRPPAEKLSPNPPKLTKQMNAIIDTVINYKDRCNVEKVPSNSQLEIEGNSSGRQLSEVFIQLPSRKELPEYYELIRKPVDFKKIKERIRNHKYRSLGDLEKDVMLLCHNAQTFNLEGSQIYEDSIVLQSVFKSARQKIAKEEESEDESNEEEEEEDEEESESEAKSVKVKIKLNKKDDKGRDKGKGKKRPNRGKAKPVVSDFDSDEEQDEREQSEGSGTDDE
Sequence of Photoreceptor-specific nuclear receptor (Q9Y5X4 whole entry): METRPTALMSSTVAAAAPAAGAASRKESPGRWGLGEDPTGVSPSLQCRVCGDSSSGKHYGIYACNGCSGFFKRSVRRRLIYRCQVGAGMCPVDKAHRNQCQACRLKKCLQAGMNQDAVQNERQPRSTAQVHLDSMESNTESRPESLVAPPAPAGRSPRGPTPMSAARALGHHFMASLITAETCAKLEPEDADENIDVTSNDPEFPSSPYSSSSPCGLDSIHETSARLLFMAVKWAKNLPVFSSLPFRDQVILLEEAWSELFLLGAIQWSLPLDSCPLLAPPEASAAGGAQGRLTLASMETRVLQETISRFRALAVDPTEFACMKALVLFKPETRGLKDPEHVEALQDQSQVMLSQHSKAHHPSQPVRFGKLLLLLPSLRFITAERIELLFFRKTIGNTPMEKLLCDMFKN
Sequence of Mu-type opioid receptor (P35372 whole entry): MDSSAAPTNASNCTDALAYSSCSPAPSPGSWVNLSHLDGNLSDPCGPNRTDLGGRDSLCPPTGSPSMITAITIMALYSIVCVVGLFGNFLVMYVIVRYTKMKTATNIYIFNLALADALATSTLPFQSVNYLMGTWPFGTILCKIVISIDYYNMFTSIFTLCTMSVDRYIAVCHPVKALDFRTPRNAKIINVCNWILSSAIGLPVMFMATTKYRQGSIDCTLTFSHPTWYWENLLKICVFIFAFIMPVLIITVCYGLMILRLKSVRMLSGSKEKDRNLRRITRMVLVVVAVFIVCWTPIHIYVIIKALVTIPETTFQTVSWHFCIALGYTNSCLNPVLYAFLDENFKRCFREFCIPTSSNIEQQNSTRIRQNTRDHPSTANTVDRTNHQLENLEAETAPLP
Sequence of 5-hydroxytryptamine receptor 2A (P35363 whole entry): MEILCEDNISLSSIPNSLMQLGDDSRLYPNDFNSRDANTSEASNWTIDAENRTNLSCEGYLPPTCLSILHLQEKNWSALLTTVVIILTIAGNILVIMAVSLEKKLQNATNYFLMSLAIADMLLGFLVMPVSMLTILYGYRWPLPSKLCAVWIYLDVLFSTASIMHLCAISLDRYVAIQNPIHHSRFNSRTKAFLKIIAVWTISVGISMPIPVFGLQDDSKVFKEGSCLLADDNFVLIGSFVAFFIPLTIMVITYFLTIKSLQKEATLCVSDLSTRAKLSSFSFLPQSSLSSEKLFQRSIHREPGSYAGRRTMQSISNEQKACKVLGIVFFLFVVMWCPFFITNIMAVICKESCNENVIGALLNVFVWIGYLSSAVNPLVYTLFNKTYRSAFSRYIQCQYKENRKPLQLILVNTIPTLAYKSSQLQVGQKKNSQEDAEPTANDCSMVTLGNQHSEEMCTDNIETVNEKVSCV
Sequence of Cytochrome P450 2D6 (P10635 whole entry): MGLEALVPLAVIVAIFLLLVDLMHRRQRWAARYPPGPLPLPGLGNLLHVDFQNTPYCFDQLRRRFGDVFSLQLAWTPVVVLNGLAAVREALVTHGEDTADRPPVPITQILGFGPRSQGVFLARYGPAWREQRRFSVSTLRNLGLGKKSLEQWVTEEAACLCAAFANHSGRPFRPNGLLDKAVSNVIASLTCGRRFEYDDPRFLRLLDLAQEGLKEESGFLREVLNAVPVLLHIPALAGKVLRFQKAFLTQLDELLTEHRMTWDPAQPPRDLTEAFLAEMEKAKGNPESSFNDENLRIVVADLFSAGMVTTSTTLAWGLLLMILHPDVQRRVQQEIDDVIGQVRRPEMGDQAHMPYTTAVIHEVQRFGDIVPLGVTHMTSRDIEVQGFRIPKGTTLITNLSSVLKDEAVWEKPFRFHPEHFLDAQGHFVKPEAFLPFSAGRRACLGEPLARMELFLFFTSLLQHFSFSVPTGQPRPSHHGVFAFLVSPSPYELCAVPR
Sequence of Glucose-6-phosphate 1-dehydrogenase (P11413 whole entry): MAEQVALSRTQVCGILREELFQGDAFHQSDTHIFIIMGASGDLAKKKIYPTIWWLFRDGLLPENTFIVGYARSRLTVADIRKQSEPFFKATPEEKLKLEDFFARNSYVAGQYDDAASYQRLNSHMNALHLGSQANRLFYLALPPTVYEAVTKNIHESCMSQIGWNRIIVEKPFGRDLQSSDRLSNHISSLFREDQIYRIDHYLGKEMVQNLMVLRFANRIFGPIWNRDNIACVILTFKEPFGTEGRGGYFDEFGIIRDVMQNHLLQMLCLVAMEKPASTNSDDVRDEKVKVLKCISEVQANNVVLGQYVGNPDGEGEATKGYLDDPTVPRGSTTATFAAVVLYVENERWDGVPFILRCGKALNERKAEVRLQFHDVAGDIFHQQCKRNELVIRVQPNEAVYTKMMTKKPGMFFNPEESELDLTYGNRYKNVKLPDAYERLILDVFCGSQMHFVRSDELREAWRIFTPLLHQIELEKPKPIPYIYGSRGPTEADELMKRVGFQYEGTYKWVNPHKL
Sequence of Cytochrome P450 2C9 (P11712 whole entry): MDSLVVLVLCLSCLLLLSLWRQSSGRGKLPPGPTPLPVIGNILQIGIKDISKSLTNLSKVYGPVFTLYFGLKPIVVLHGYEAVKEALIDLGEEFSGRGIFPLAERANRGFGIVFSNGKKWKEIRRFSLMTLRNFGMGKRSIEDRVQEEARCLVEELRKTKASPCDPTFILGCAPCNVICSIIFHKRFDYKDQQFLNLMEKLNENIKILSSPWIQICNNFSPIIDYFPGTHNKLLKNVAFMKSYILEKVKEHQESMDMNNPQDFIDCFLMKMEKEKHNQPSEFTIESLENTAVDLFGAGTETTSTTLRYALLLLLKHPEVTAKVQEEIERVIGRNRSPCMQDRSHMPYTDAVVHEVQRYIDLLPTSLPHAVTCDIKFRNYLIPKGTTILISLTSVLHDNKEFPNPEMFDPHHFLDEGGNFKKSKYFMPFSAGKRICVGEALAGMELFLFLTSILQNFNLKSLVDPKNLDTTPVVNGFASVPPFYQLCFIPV
Sequence of Cytochrome P450 2C19 (P33261 whole entry): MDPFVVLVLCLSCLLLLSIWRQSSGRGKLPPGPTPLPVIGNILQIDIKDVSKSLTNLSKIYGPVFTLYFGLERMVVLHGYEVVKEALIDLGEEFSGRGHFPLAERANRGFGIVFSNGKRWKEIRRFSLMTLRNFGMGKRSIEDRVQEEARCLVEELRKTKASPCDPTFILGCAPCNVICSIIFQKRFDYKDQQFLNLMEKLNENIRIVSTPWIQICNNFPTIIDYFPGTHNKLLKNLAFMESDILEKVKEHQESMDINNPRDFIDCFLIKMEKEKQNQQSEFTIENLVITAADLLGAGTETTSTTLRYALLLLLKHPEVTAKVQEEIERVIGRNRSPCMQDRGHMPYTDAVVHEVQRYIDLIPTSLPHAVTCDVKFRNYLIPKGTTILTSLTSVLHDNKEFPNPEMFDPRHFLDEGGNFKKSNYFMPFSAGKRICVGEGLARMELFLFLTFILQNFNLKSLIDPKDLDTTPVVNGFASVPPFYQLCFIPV

Compound: CCn1c(SCc2nc3scc(-c4ccccc4)c3c(=O)[nH]2)nnc1-c1cccs1
- IC50 [1]: > 80 µM (inactive)

Compound: O=S(=O)(c1ccc(OCC(O)CN2CCN(c3ccccc3O)CC2)cc1)N1CCOCC1 (stereo unspecified)
- EC50 [2]: 76.1 µM (inactive)
- EC50 [3]: 92.5 µM (inactive)

Compound: Cc1ccsc1C(=O)OCC(=O)NCCC1=CCCCC1
- EC50 [4]: > 91.1 µM (inactive)
- EC50 [5]: > 91.1 µM (inactive)

Compound: O=S(=O)(c1ccc(OCC(O)CN2CCN(c3ccccc3Cl)CC2)cc1)N1CCOCC1 (stereo unspecified)
- EC50 [2]: 25.4 µM (inactive)
- EC50 [3]: 92.5 µM (inactive)

Compound: CCn1cnc2sc(C(=O)Nc3ccccc3OC)c(C)c2c1=O
- IC50 [6]: 7.11 µM (active)
- IC50 [7]: 4.9 µM (active)

Compound: O=C(Nc1ccc(Cl)cc1)N1CCc2[nH]c3ccccc3c2C1
- EC50 [8]: 0.802 µM (active)
- IC50 [9]: 2.32 µM (not active)
- AC50 [10]: 2 µM (inconclusive)
- AC50 [11]: 3.98 µM (inconclusive)
- AC50 [12]: 22.4 µM (inconclusive)

Compound: CC1CCC2=NN(C(=O)c3ccco3)C(O)(C(F)(F)F)C2C1 (stereo unspecified)
- IC50 [13]: > 47.1 µM (inactive)
- EC50 [14]: > 53 µM (inactive)

Compound: COc1ccc(-c2cc(C#N)nc(Cl)n2)cc1
- EC50 [4]: > 91.2 µM (inactive)
- AC50 [15]: 79.8 µM (active)
- EC50 [16]: 37.2 µM (active)
- EC50 [5]: > 91.2 µM (inactive)

Compound: C[C@H](NC(=O)Nc1ccc2c(c1)OCCO2)C(=O)O
- IC50 [13]: > 47.1 µM (inactive)
- EC50 [14]: > 53 µM (inactive)

Compound: O=C(Nc1cccc(-n2cnnn2)c1)c1cc2ccccc2o1
- IC50 [6]: 6.55 µM (active)
- IC50 [7]: 5.91 µM (active)

Compound: Nc1nc(CN2CCN(Cc3ccccc3)CC2)nc(Nc2ccc3c(c2)OCCO3)n1
- EC50 [4]: > 91.2 µM (inactive)
- EC50 [5]: > 91.2 µM (inactive)
